Laboratory results: patent publication US8563717B2, “Adenine derivatives” (GlaxoSmithKline LLC, priority 2008, dated 2013)
Structures can show the parent of a compound that is named as a salt.

test system: Interferon-α; test: Induction of Interferon-α using cryopreserved human PBMCs; format: cell-based; settings: PBMC, 24 h incubation, normalised to 1 uM resiquimod, read-out: mean pEC50 for induction of IFN-α (converted)
Protocol: Assay for the Induction of Interferon-α Using Cryopreserved Human Peripheral Blood Mononuclear Cells (PBMCs)
Compounds were dissolved in DMSO. Serial 2-fold dilutions with DMSO were prepared and 0.25 μl dispensed into 384-well clear Greiner polypropylene plates.
Blood samples of up to 200 ml were obtained from healthy human donors. Whole blood in 25 ml volumes was overlaid onto 15 ml Ficoll gradients in Leucosep tubes, and centrifuged at 1000 g for 20 min. Cells in the band at the plasma/histopaque interface were carefully removed and washed twice with PBS (centrifuged at 400 g for 5 min to harvest). The final pellet was resuspended in freezing medium (90% Heat-inactivated serum, 10% DMSO) to a cell concentration of 4×10^7 cells/ml. The resuspended cells were then cryopreserved (frozen) using a rate controlled freezer, and stored at −140° C. for up to 4 months.
Immediately prior to assay, vials of cryopreserved (frozen) PBMCs were thawed rapidly in a water bath at 37° C. A 1:10 dilution of the cells in trypan blue was prepared and counted. The PBMCs were then diluted in growth media [RPMI 1640 containing 10% fetal calf serum (invitrogen), Penicillin+[…] (Gibco cat. #25030-024, 1:50), L-Glutamine 2 mM, and 1000 units/ml recombinant human IFN-gamma (Preprotech catalogue #300-02)] to a density of 1×10^6 cells/ml, and 50 ul/well dispensed to 384-well clear Greiner polypropylene plates containing 0.25 μl DMSO or test compound in 0.25 μl DMSO. […] Plates were incubated for 24 h at 37° C. in 5% CO2.
A multi-isoform immunoassay was used to quantify IFN-α in PBMC supernatants. Rabbit polyclonal antibody against human IFN-α (catalogue number 31101, Stratech Scientific) was diluted 1:10000 in assay buffer (RPMI 1640 containing 10% fetal calf serum, Invitrogen) and 20 μl was added to each well of an MSD (Meso-Scale Discovery) single small-spot 384-well GAR (goat anti-rabbit antibody coated) plate. The plate was incubated for 1 hour at room temperature with vigorous shaking. Following three washes with PBS, 20 μl of cell supernatant were added to each well of the plate. The plate was then incubated for 1 hour at room temperature with vigorous shaking. A pair of monoclonal antibodies to IFN-α (catalogue numbers 21100 and 21112, Stratech Scientific) were labelled with sulfo-TAG (MSD), diluted 1:1000 in assay buffer and 20 μl added to each well of the plate. The plate was further incubated for 1 hour at room temperature with vigorous shaking. Following three washes with PBS, 30 μl of x2 T buffer (MSD) was added to each well and the plate was read on an MSD Sector 6000 plate reader.
Data were normalised to internal plate controls of 1 uM resiquimod (n=16) and DMSO (n=16). pEC50 values were derived by 4-parameter curve fit with IRLS in ActivityBase, from 11-point, two-fold serial dilution of test compounds.

Structure (SMILES)	EC50
CCCCOc1nc(N)c2[nH]c(=O)n(CCC3CCN(CCC(C)C)CC3)c2n1 [Example 85, 6-Amino-2-(butyloxy)-9-{2-[1-(3-methylbutyl)-4-piperidinyl]ethyl}-7,9-dihydro-8H-purin-8-one]	< 1580 nM
CCCCOc1nc(N)c2[nH]c(=O)n(CCC3CCN(C4CCCC4)CC3)c2n1 [Example 86, 6-Amino-2-(butyloxy)-9-[2-(1-cyclopentyl-4-piperidinyl)ethyl]-7,9-dihydro-8H-purin-8-one]	< 1580 nM
CCCCOc1nc(N)c2[nH]c(=O)n(CCC3CCN(CC4CCCC4)CC3)c2n1 [Example 87, 6-Amino-2-(butyloxy)-9-{2-[1-(cyclopentylmethyl)-4-piperidinyl]ethyl}-7,9-dihydro-8H-purin-8-one]	< 1580 nM
CCCCOc1nc(N)c2[nH]c(=O)n(CCC3CCN(C4CCCCC4)CC3)c2n1 [Example 88, 6-Amino-2-(butyloxy)-9-[2-(1-cyclohexyl-4-piperidinyl)ethyl]-7,9-dihydro-8H-purin-8-one]	< 1580 nM
CCCCOc1nc(N)c2[nH]c(=O)n(CCC3CCN(CCC4CCCCC4)CC3)c2n1 [Example 89, 6-Amino-2-(butyloxy)-9-{2-[1-(2-cyclohexylethyl)-4-piperidinyl]ethyl}-7,9-dihydro-8H-purin-8-one]	< 1580 nM
CCC[C@H](C)Oc1nc(N)c2[nH]c(=O)n(CCC3CCNCC3)c2n1 [Example 90, 6-Amino-2-{[(1S)-1-methylbutyl]oxy}-9-[2-(4-piperidinyl)ethyl]-7,9-dihydro-8H-purin-8-one]	< 1580 nM
CCCCOc1nc(N)c2[nH]c(=O)n(CCCC3CCNCC3)c2n1 [Example 93, 6-Amino-2-(butyloxy)-9-[3-(4-piperidinyl)propyl]-7,9-dihydro-8H-purin-8-one]	< 1580 nM
CCCCOc1nc(N)c2[nH]c(=O)n(CCCC3CCN(CC(C)C)CC3)c2n1 [Example 97, 6-Amino-2-(butyloxy)-9-{3-[1-(2-methylpropyl)-4-piperidinyl]propyl}-7,9-dihydro-8H-purin-8-one]	< 1580 nM
CCCCOc1nc(N)c2[nH]c(=O)n(CCCC3CCN(C(CC)CC)CC3)c2n1 [Example 98, 6-Amino-2-(butyloxy)-9-{3-[1-(1-ethylpropyl)-4-piperidinyl]propyl}-7,9-dihydro-8H-burin-8-one]	< 1580 nM
CCCCOc1nc(N)c2[nH]c(=O)n(CCCC3CCN(CCC(C)C)CC3)c2n1 [Example 99, 6-Amino-2-(butyloxy)-9-{3-[1-(3-methylbutyl)-4-piperidinyl]propyl}-7,9-dihydro-8H-purin-8-one]	< 1580 nM
CCCCOc1nc(N)c2[nH]c(=O)n(CCCC3CCN(C4CCCC4)CC3)c2n1 [Example 100, 6-Amino-2-(butyloxy)-9-[3-(1-cyclopentyl-4-piperidinyl)propyl]-7,9-dihydro-8H-purin-8-one]	< 1580 nM
CCCCOc1nc(N)c2[nH]c(=O)n(CCCC3CCN(CC4CCCC4)CC3)c2n1 [Example 101, 6-Amino-2-(butyloxy)-9-{3-[1-(cyclopentylmethyl)-4-piperidinyl]propyl}-7,9-dihydro-8H-purin-8-one]	< 1580 nM
CCCCOc1nc(N)c2[nH]c(=O)n(CCCC3CCN(CCC4CCCCC4)CC3)c2n1 [Example 103, 6-Amino-2-(butyloxy)-9-{3-[1-(2-cyclohexylethyl)-4-piperidinyl]propyl}-7,9-dihydro-8H-purin-8-one]	< 1580 nM
CCC[C@H](C)Oc1nc(N)c2[nH]c(=O)n(CCCC3CCN(CC)CC3)c2n1 [Example 105, 6-Amino-9-[3-(1-ethyl-4-piperidinyl)propyl]-2-{[(1S)-1-methylbutyl]oxy}-7,9-dihydro-8H-purin-8-one]	< 1580 nM
CCCCOc1nc(N)c2[nH]c(=O)n(CCCCC3CCNCC3)c2n1 [Example 107, 6-Amino-2-(butyloxy)-9-[4-(4-piperidinyl)butyl]-7,9-dihydro-8H-purin-8-one]	< 1580 nM
CCCCOc1nc(N)c2[nH]c(=O)n(CCCCC3CCN(C(C)C)CC3)c2n1 [Example 109, 6-Amino-2-(butyloxy)-9-{4-[1-(1-methylethyl)-4-piperidinyl]butyl}-7,9-dihydro-8H-purin-8-one]	< 1580 nM

Structure (SMILES)	EC50
CCCCOc1nc(N)c2[nH]c(=O)n(CCCCC3CCN(CCCC)CC3)c2n1 [Example 110, 6-Amino-2-(butyloxy)-9-[4-(1-butyl-4-piperidinyl)butyl]-7,9-dihydro-8H-purin-8-one]	< 1580 nM
CCCCOc1nc(N)c2[nH]c(=O)n(CCCCC3CCN(CC(C)C)CC3)c2n1 [Example 111, 6-Amino-2-(butyloxy)-9-{4-[1-(2-methylpropyl)-4-piperidinyl]butyl}-7,9-dihydro-8H-purin-8-one]	< 1580 nM
CCCCOc1nc(N)c2[nH]c(=O)n(CCCCC3CCN(C(CC)CC)CC3)c2n1 [Example 112, 6-Amino-2-(butyloxy)-9-{4-[1-(1-ethylpropyl)-4-piperidinyl]butyl}-7,9-dihydro-8H-purin-8-one]	< 1580 nM
CCCCOc1nc(N)c2[nH]c(=O)n(CCCCC3CCN(CCC(C)C)CC3)c2n1 [Example 113, 6-Amino-2-(butyloxy)-9-{4-[1-(3-methylbutyl)-4-piperidinyl]butyl}-7,9-dihydro-8H-purin-8-one]	< 1580 nM
CCCCOc1nc(N)c2[nH]c(=O)n(CCCCC3CCN(C4CCCC4)CC3)c2n1 [Example 114, 6-Amino-2-(butyloxy)-9-[4-(1-cyclopentyl-4-piperidinyl)butyl]-7,9-dihydro-8H-purin-8-one]	< 1580 nM
CCCCOc1nc(N)c2[nH]c(=O)n(CCCCC3CCN(CC4CCCC4)CC3)c2n1 [Example 115, 6-Amino-2-(butyloxy)-9-{4-[1-(cyclopentylmethyl)-4-piperidinyl]butyl}-7,9-dihydro-8H-purin-8-one]	< 1580 nM
CCCCOc1nc(N)c2[nH]c(=O)n(CCCCC3CCN(C4CCCCC4)CC3)c2n1 [Example 116, 6-Amino-2-(butyloxy)-9-[4-(1-cyclohexyl-4-piperidinyl)butyl]-7,9-dihydro-8H-purin-8-one]	< 1580 nM
CCCCOc1nc(N)c2[nH]c(=O)n(CCCCC3CCN(CCC4CCCCC4)CC3)c2n1 [Example 117, 6-Amino-2-(butyloxy)-9-{4-[1-(2-cyclohexylethyl)-4-piperidinyl]butyl}-7,9-dihydro-8H-purin-8-one]	< 1580 nM
CCC[C@H](C)Oc1nc(N)c2[nH]c(=O)n(CCCCC3CCNCC3)c2n1 [Example 118, 6-Amino-2-{[(1S)-1-methylbutyl]oxy}-9-[4-(4-piperidinyl)butyl]-7,9-dihydro-8H-purin-8-one]	< 1580 nM
CCCCNc1nc(N)c2[nH]c(=O)n(CCCCC3CCNCC3)c2n1 [Example 120, 6-Amino-2-(butylamino)-9-[4-(4-piperidinyl)butyl]-7,9-dihydro-8H-purin-8-one]	< 1580 nM
CCCCNc1nc(N)c2[nH]c(=O)n(CCCCC3CCN(CC)CC3)c2n1 [Example 121, 6-Amino-2-(butylamino)-9-[4-(1-ethyl-4-piperidinyl)butyl]-7,9-dihydro-8H-purin-8-one]	< 1580 nM
CCCCOc1nc(N)c2[nH]c(=O)n(CCCCCC3CCN(CC)CC3)c2n1 [Example 123, 6-Amino-2-(butyloxy)-9-[5-(1-ethyl-4-piperidinyl)pentyl]-7,9-dihydro-8H-purin-8-one]	< 1580 nM
CCCCOc1nc(N)c2[nH]c(=O)n(CCCCCC3CCN(CCC)CC3)c2n1 [Example 124, 6-Amino-2-(butyloxy)-9-[5-(1-propyl-4-piperidinyl)pentyl]-7,9-dihydro-8H-purin-8-one]	< 1580 nM
CCCCOc1nc(N)c2[nH]c(=O)n(CCCCCC3CCN(C(C)C)CC3)c2n1 [Example 125, 6-Amino-2-(butyloxy)-9-{5-[1-(1-methylethyl)-4-piperidinyl]pentyl}-7,9-dihydro-8H-purin-8-one]	< 1580 nM
CCCCOc1nc(N)c2[nH]c(=O)n(CCCCCC3CCN(CCCC)CC3)c2n1 [Example 126, 6-Amino-2-(butyloxy)-9-[5-(1-butyl-4-piperidinyl)pentyl]-7,9-dihydro-8H-purin-8-one]	< 1580 nM
CCCCOc1nc(N)c2[nH]c(=O)n(CCCCCC3CCN(CC(C)C)CC3)c2n1 [Example 127, 6-Amino-2-(butyloxy)-9-{5-[1-(2-methylpropyl)-4-piperidinyl]pentyl}-7,9-dihydro-8H-purin-8-one hydrochloride]	< 1580 nM
